Experimental findings from patent publication US20240132480A1, “INHIBITORS OF MYCOBACTERIUM TUBERCULOSIS LIPOAMIDE DEHYDROGENASE” (Cornell University, priority 2021, published 2024) are described below.

One data set concerns the target Mtb Lpd (Mycobacterium tuberculosis (strain ATCC 25618 / H37Rv), UniProt P9WHH9). It counts as biochemical.
For data set [1] the following is noted: microsomes.
Setting [2] is: 30 min preincubation, read-out: LPD IC50 (μM) w/ 30 min preincubation.

Read-outs that look alike come from different tables or passages of the source.

Regarding `Cc1cc(S(=O)(=O)N2CCC2C(=O)Nc2ccc(OCCN(C)C)c(C)c2)c2[nH]c(C#N)cc2c1` (centres unmarked) [Example 207], the values for the IC50 at Mtb Lpd (setting [2]) and on Mtb Lpd (read-out: LPD IC50) were 0.06 µM and 0.225 µM, respectively. Further, in data set [1], the “Human Liver Microsome Stability” value is -7 µL/min/mg.
Turning to `COc1ccc(CNC(=O)CN(C)S(=O)(=O)c2cc(C)cc3c[nH]nc23)cc1` [Example 51], the IC50 at Mtb Lpd (read-out: LPD IC50) stood at 0.049 µM. Also, the “Human Liver Microsome Stability” value in data set [1] came out at 70 µL/min/mg.
For `CCN(CC(=O)Nc1ccc(N2CCN(C)CC2)c(Cl)c1)S(=O)(=O)c1cc(C)cc2cn[nH]c12` [Example 160], the IC50 at Mtb Lpd (read-out: LPD IC50) was 0.106 µM. Also, in data set [1], the “Human Liver Microsome Stability” value turned out to be 107 µL/min/mg.
Consider `O=C(Nc1ccc2c(c1)OCCN2C1CCOCC1)[C@@H]1CCN1S(=O)(=O)c1cc(Cl)cc2cn[nH]c12` [Example 161], for which the IC50 on Mtb Lpd (read-out: LPD IC50) was 0.033 µM. For the same compound, the “Human Liver Microsome Stability” value in data set [1] is 121 µL/min/mg.
Turning to `Cc1cc(S(=O)(=O)N(C)CC(=O)NCC#Cc2ccccc2)c2[nH]c(C#N)cc2c1` [Example 218], at Mtb Lpd (setting [2]), the IC50 is 0.03 µM. The “Human Liver Microsome Stability” value in data set [1] turned out to be 191 µL/min/mg.
On to `CCn1ccc(NC(=O)CN(C)S(=O)(=O)c2cc(C)cc3cn[nH]c23)cc1=O` [Example 14, 2-((N,5-dimethyl-1H-indazole)-7-sulfonamido)-N-(1-ethyl-2-oxo-1,2-dihydropyridin-4-yl)acetamide], for which, on Mtb Lpd (read-out: LPD IC50), the IC50 is 0.0531 µM. Moreover, in data set [1], the “Human Liver Microsome Stability” value is -12 µL/min/mg.
For `Cc1cc(S(=O)(=O)N(C)CC(=O)Nc2ccc3c(c2)OCCN3C2CCOCC2)c2[nH]c(C#N)cc2c1` [Example 181, 2-((2-cyano-N,5-dimethyl-1H-indole)-7-sulfonamido)-N-(4-(tetrahydro-2H-pyran-4-yl)-3,4-dihydro-2H-benzo[b][1,4]oxazin-7-yl)acetamide], the IC50 at Mtb Lpd (read-out: LPD IC50) worked out at 0.095 µM. The “Human Liver Microsome Stability” value in data set [1] turned out to be 195 µL/min/mg.
Taken in the same sequence, the figures for `Cc1cc(S(=O)(=O)N(C)CC(=O)Nc2ccc(C3CCN(C)CC3)c(Cl)c2)c2[nH]ncc2c1` [Example 194] were 0.073 µM and 35 µL/min/mg.
As for `Cc1cc(S(=O)(=O)N(C)CC(=O)Nc2ccn(C(C)C)c(=O)c2)c2[nH]ncc2c1` [Example 16], the IC50 on Mtb Lpd (read-out: LPD IC50) worked out at 0.0508 µM. The “Human Liver Microsome Stability” value in data set [1] is 35 µL/min/mg.
Taken in the same sequence, the figures for `Cc1cc(S(=O)(=O)N(C)CC(=O)Nc2ccn(C3COC3)c(=O)c2)c2[nH]ncc2c1` [Example 99] were 0.056 µM and 17 µL/min/mg.
In the same order, the values of `CN(CC(=O)Nc1ccc2c(c1)OCCN2C1COC1)S(=O)(=O)c1cc(C2(O)CC2)cc2cn[nH]c12` [Example 173] are 0.406 µM and 60 µL/min/mg.
For `CCN(CC(=O)Nc1ccc2c(c1)OCCN2C1CCOCC1)S(=O)(=O)c1cc(C)cc2c[nH]nc12` [Example 156], at Mtb Lpd (read-out: LPD IC50), the IC50 amounted to 0.0274 µM. Further, in data set [1], the “Human Liver Microsome Stability” value worked out at 58 µL/min/mg.
For the compound `Cc1cc(S(=O)(=O)N(C)CC(=O)Nc2ccc(C3CCCCC3)c(C)c2)c2[nH]c(C)cc2c1` [Example 42], at Mtb Lpd (read-out: LPD IC50), the IC50 was 0.573 µM. Moreover, the “Human Liver Microsome Stability” value in data set [1] amounted to 23 µL/min/mg.
As for `Cc1cc(S(=O)(=O)N(C)CC(=O)NCc2cn(-c3ccccc3)nn2)c2[nH]ncc2c1` [Example 125, 2-((N,5-dimethyl-1H-indazole)-7-sulfonamido)-N-((1-phenyl-1H-1,2,3-triazol-4-yl)methyl)acetamide], on Mtb Lpd (read-out: LPD IC50), the IC50 amounted to 0.048 µM. Further, in data set [1], the “Human Liver Microsome Stability” value stood at 520 µL/min/mg.
Taken in the same sequence, the figures for `CN(CC(=O)Nc1ccc2c(c1)OCCN2C1CCOCC1)S(=O)(=O)c1cc(Cl)cc2c(F)n[nH]c12` [Example 165] were 0.037 µM and 162 µL/min/mg.
In the same order, the values of `Cc1cc(S(=O)(=O)N(C)CC(=O)Nc2ccc3c(c2)OC(C)(C)C(=O)N3C)c2n[nH]cc2c1` [Example 159] are 0.019 µM and 67 µL/min/mg.
Turning to `Cc1cc(S(=O)(=O)N(C)CC(=O)Nc2ccc3c(c2)N(C2COC2)CCO3)c2[nH]ncc2c1` [Example 169], on Mtb Lpd (read-out: LPD IC50), the IC50 was 0.038 µM. Also, the “Human Liver Microsome Stability” value in data set [1] was 39 µL/min/mg.
As to `CN(CC(=O)Nc1ccc2c(c1)OCCN2C1CCOCC1)S(=O)(=O)c1cc(C2(O)CC2)cc2cn[nH]c12` [Example 174], on Mtb Lpd (read-out: LPD IC50), the IC50 worked out at 0.55 µM. Further, the “Human Liver Microsome Stability” value in data set [1] is 131 µL/min/mg.
In the same order, the values of `CC(C)(CO)N1CCOc2cc(NC(=O)[C@@H]3CCN3S(=O)(=O)c3cc(C(F)F)cc4cn[nH]c34)ccc21` [Example 177] are 0.197 µM and 177 µL/min/mg.
In the case of `CN(C)CCOc1ccc(NC(=O)CN(C)S(=O)(=O)c2cccc3cn[nH]c23)cc1Cl` [Example 164], the IC50 on Mtb Lpd (read-out: LPD IC50) stood at 0.085 µM. The “Human Liver Microsome Stability” value in data set [1] is -16 µL/min/mg.
For the compound `Cc1cc(S(=O)(=O)N(C)CC(=O)Nc2ccc3c(c2)OCCO3)c2[nH]ncc2c1` [Example 29], the IC50 at Mtb Lpd (read-out: LPD IC50) came out at 0.0109 µM. Moreover, in data set [1], the “Human Liver Microsome Stability” value was 76 µL/min/mg.
Consider `CN(CC(=O)Nc1ccc2c(c1)OCCN2C1CCOCC1)S(=O)(=O)c1cc(C(F)F)cc2c(F)[nH]nc12` [Example 175, 2-((5-(difluoromethyl)-3-fluoro-N-methyl-1H-indazole)-7-sulfonamido)-N-(4-(tetrahydro-2H-pyran-4-yl)-3,4-dihydro-2H-benzo[b][1,4]oxazin-7-yl)acetamide], for which the IC50 at Mtb Lpd (read-out: LPD IC50) was found to be 0.089 µM. In addition, the “Human Liver Microsome Stability” value in data set [1] is 166 µL/min/mg.
`Cc1cc(S(=O)(=O)N(C)CC(=O)Nc2ccc3c(c2)OCCN3CC(C)(C)O)c2[nH]ncc2c1` [Example 146]: on Mtb Lpd (read-out: LPD IC50), the IC50 was determined as 0.026 µM. The “Human Liver Microsome Stability” value in data set [1] came to 31 µL/min/mg.
For `Cc1cc(S(=O)(=O)N(C)CC(=O)Nc2ccc3cnccc3c2)c2n[nH]cc2c1` [Example 57], at Mtb Lpd (read-out: LPD IC50), the IC50 was 0.0328 µM. The “Human Liver Microsome Stability” value in data set [1] was 59 µL/min/mg.
As for `CN(CC(=O)Nc1ccc2c(c1)OCCN2C1CCOCC1)S(=O)(=O)c1cc(C(F)F)cc2cn[nH]c12` [Example 171, 2-((5-(difluoromethyl)-N-methyl-1H-indazole)-7-sulfonamido)-N-(4-(tetrahydro-2H-pyran-4-yl)-3,4-dihydro-2H-benzo[b][1,4]oxazin-7-yl)acetamide], the IC50 on Mtb Lpd (read-out: LPD IC50) was determined as 0.078 µM. For the same compound, the “Human Liver Microsome Stability” value in data set [1] amounted to 102 µL/min/mg.
As for `CCc1ccc(NC(=O)CN(C)S(=O)(=O)c2cc(C)cc3cc[nH]c23)cc1C` [Example 21], the IC50 on Mtb Lpd (read-out: LPD IC50) stood at 0.136 µM. Besides, the “Human Liver Microsome Stability” value in data set [1] worked out at 328 µL/min/mg.
On to `Cc1cc(S(=O)(=O)N2CC[C@H]2C(=O)Nc2ccc3c(c2)N(C)CCO3)c2[nH]ncc2c1` [Example 41], for which, at Mtb Lpd (read-out: LPD IC50), the IC50 amounted to 0.0356 µM. In data set [1], the “Human Liver Microsome Stability” value was found to be 197 µL/min/mg.
Taken in the same sequence, the figures for `Cc1cc(S(=O)(=O)N2CC[C@H]2C(=O)Nc2ccc3cnccc3c2)c2[nH]ncc2c1` [Example 85] were 0.023 µM and 93 µL/min/mg.
Turning to `O=C(Nc1ccc2c(c1)OCCN2C1COC1)[C@@H]1CCN1S(=O)(=O)c1cc(C(F)F)cc2c(F)n[nH]c12` [Example 184, (S)-1-((5-(difluoromethyl)-3-fluoro-1H-indazol-7-yl)sulfonyl)-N-(4-(oxetan-3-yl)-3,4-dihydro-2H-benzo[b][1,4]oxazin-7-yl)azetidine-2-carboxamide], the IC50 at Mtb Lpd (read-out: LPD IC50) came to 0.148 µM. In addition, the “Human Liver Microsome Stability” value in data set [1] came out at 36 µL/min/mg.
With `Cc1cc(S(=O)(=O)N(C)CC(=O)NCC#Cc2ccccc2)c2[nH]ncc2c1` [Example 203], the IC50 on Mtb Lpd (read-out: LPD IC50) amounted to 0.043 µM. Also, the “Human Liver Microsome Stability” value in data set [1] came out at 129 µL/min/mg.
As for `Cc1cc(S(=O)(=O)N(C)CC(=O)Nc2ccc3c(c2)OCCN3C)c2[nH]ncc2c1` [Example 30, 2-((N,5-dimethyl-1H-indazole)-7-sulfonamido)-N-(4-methyl-3,4-dihydro-2H-benzo[b][1,4]oxazin-7-yl)acetamide], the IC50 at Mtb Lpd (read-out: LPD IC50) is 0.00363 µM. The “Human Liver Microsome Stability” value in data set [1] turned out to be 78 µL/min/mg.
For `Cc1cc(S(=O)(=O)N(C)CC(=O)Nc2ccc3ccncc3c2)c2n[nH]cc2c1` [Example 63], the IC50 on Mtb Lpd (read-out: LPD IC50) stood at 0.0321 µM. Besides, the “Human Liver Microsome Stability” value in data set [1] is 63 µL/min/mg.
`Cc1cc(S(=O)(=O)N(C)CC(=O)Nc2ccc3nccn3c2)c2n[nH]cc2c1` [Example 48]: on Mtb Lpd (read-out: LPD IC50), the IC50 turned out to be 0.0421 µM. Further, the “Human Liver Microsome Stability” value in data set [1] stood at 36 µL/min/mg.
Taken in the same sequence, the figures for `Cc1cc(NC(=O)CN(C)S(=O)(=O)c2cc(C3CC3)cc3cn[nH]c23)ccc1N1CCOCC1` [Example 34] were 0.0067 µM and 203 µL/min/mg.
Take `Cc1cc(S(=O)(=O)N(C)CC(=O)NC2COC2)c2n[nH]cc2c1` [Example 50]: the IC50 on Mtb Lpd (read-out: LPD IC50) is 0.0738 µM. Also, the “Human Liver Microsome Stability” value in data set [1] was 8 µL/min/mg.
With `Cn1ccc(NC(=O)[C@@H]2CCN2S(=O)(=O)c2cc(C=O)cc3c(F)n[nH]c23)cc1=O` [Example 186, (S)-1-((3-fluoro-5-formyl-1H-indazol-7-yl)sulfonyl)-N-(1-methyl-2-oxo-1,2-dihydropyridin-4-yl)azetidine-2-carboxamide], the IC50 on Mtb Lpd (read-out: LPD IC50) was found to be 1.04 µM. Besides, the “Human Liver Microsome Stability” value in data set [1] was 153 µL/min/mg.
With `CN(CC(=O)Nc1ccn(C)c(=O)c1)S(=O)(=O)c1cc(C2CC2)cc2cn[nH]c12` [Example 35], the IC50 at Mtb Lpd (read-out: LPD IC50) is 0.152 µM. Also, the “Human Liver Microsome Stability” value in data set [1] came out at 91 µL/min/mg.
Regarding `O=C(Nc1ccc2c(c1)OCCN2C1CCOCC1)[C@@H]1CCN1S(=O)(=O)c1cc(C(F)F)cc2c(F)n[nH]c12` [Example 185], the IC50 on Mtb Lpd (read-out: LPD IC50) is 0.183 µM. For the same compound, the “Human Liver Microsome Stability” value in data set [1] was found to be 114 µL/min/mg.
With `Cc1cc(S(=O)(=O)N(C)CC(=O)Nc2ccn(C)c(=O)c2)c2[nH]ccc2c1` [Example 23], the IC50 on Mtb Lpd (read-out: LPD IC50) is 0.0993 µM. For the same compound, the “Human Liver Microsome Stability” value in data set [1] was determined as 19 µL/min/mg.
`Cc1cc(S(=O)(=O)N2CC[C@H]2C(=O)Nc2ccc(N3CCOCC3)c(Cl)c2)c2[nH]c(C#N)cc2c1` [Example 195]: the IC50 at Mtb Lpd (read-out: LPD IC50) amounted to 0.111 µM. The “Human Liver Microsome Stability” value in data set [1] was 64 µL/min/mg.
`CN(CC(=O)Nc1ccn(C)c(=O)c1)S(=O)(=O)c1cc(Cl)cc2c(F)n[nH]c12` [Example 150]: the IC50 on Mtb Lpd (read-out: LPD IC50) amounted to 0.046 µM. The “Human Liver Microsome Stability” value in data set [1] stood at 1 µL/min/mg.
